Values quoted from earlier work, collected in patent US4906471A (priority 1989, dated 1990).

How the values were obtained:
[1] = tested on: patients
[2] = tested on: trasient ischemic attacks; conditions: in men; prior art statement

Compound | side effects / toxic effects [1] | side effects at low doses [1] | incidence of transient ischemic attacks [2] | side effects at higher doses [1] | side effects at usual dosage ([1]; usual dosage, prior art statement)
Neomycin | high toxicity | nausea, abdonimal cramps, diarrhea and malabsorption |  |  | 
CC(=O)Oc1ccccc1C(=O)O [Aspirin] |  |  | decrease the incidence of trasient ischemic attacks | tinnitus, decreased hearing and vertigo | gastric intolerance
colestipol | constipation and bloating sensation; some times hearburn and diarrhea |  |  |  | 
